The values below come from patent US20110165277A1, “Biological Materials and Uses Thereof” (priority 2008, published 2011).

Structures are written as SMILES. Where “and” joins values, the source holds several entries; their conditions need not be identical. Equal entries are not always repeated.

Experiment [1] concerns rumen fluid. Description: Methane and volatile fatty acid production by buffered rumen fluid incubated with hay barley mix (Example 1). In kind it is cell-based, cow. Conditions: 500 μg/ml; 16 hours, 39° C. How it is done:
Thirty ml of a 33% buffered solution of rumen fluid withdrawn from a rumen canulated cow was incubated with 0.3 g of a 50:50 hay barley mix at 39° C. under anaerobic conditions.
(§1) After 16 hours the volume of gas produced and the percentage of methane in the headspace was measured and the resultant fermentation fluid was analysed for volatile fatty acids by HPLC.
Sandalwood oil, and control oils of commercial essential oil mixes or pure oils of eugenol or cinnamaldehyde were added in the amount of 500 μg/ml to the 30 ml buffered solution of rumen fluid prior to incubation. Sandalwood oil was obtained from Cardiff University and Sigma [SAFC (e.g. W30,050-0 lot no. 03722CC-396) and Sandalwood oil manufactured by Fluka (355263/1 lot no. 52706264).]

The nature of experiment [2]: Further sandalwood analogues: volatile fatty acid and methane production (Example 7, Table 14). It is filed as cell-based. How it is done: (§2) Further testing of sandalwood analogues was conducted following the protocols described in Examples 3 and 5.
Experiment [3] can be described thus: Further sandalwood analogues: CH4 per bottle, compound in DMSO or ETOH (Example 7, Table 15). In kind it is cell-based. Conditions: for CH4: single bottles rep a, b, c. Here is the method: as §2
In experiment [4] the test system is rumen fluid. Description: Methane production by buffered rumen fluid, sandalwood oil and synthetic replacements (Example 4). In kind it is cell-based, cow. Conditions: 5, 50 or 100 or 500 pg/ml; 16 hours. Here is the method: Thirty ml of a 33% buffered solution of rumen fluid withdrawn from a rumen canulated cow was incubated with 0.3 g of a 50:50 hay barley mix at 39° C. under anaerobic conditions
as §1
Sandalwood oil from either Fluka or SAFC and two different batches of Javanol (Givaudan) or a single batch of Santaliff (International Flavors & Fragrances) (both Javanol and Santaliff are artifical Sandalwood replacements) were added in the amount of 5, 50 or 100 or 500 pg/ml to the 30 ml buffered solution of rumen fluid prior to incubation.

As to `O=CC=Cc1ccccc1` [Cinnamaldehyde], in the experiment with rumen fluid [1], the Acetate formation is recorded as 2832 μmole/g of feed, the Butyrate formation is given as 73 μmole/g of feed, the Methane formation was 1471 μmole/g of feed and the Propionate formation was 492 μmole/g of feed. The “Total volatile fatty acids formation” value with rumen fluid [1] is reported as 3398 μmole/g of feed.
In the case of `CC(C)=CCCC(C)=CC=O` [Citral], in the experiment on rumen fluid [1], the Acetate formation was 2754 μmole/g of feed, the Butyrate formation is listed as 72 μmole/g of feed, the Methane formation was 1461 μmole/g of feed and the Propionate formation was 534 μmole/g of feed. For the same compound, the “Total volatile fatty acids formation” value with rumen fluid [1] was 3361 μmole/g of feed.
Turning to `C=CCc1ccc(O)c(OC)c1` [Eugenol], in the experiment on rumen fluid [1], the Acetate formation is reported as 2817 μmole/g of feed, the Butyrate formation is reported as 73 μmole/g of feed, the Methane formation is 1436 μmole/g of feed and the Propionate formation is 590 μmole/g of feed. For the same compound, in the experiment on rumen fluid [1], the “Total volatile fatty acids formation” value is on record as 3479 μmole/g of feed.
Turning to `CCC(=CCC1CC=C(C)C1(C)C)CO` (stereo not shown) [Sanjinol, 2-ethyl-4(2,2,3-trimethyl-3-cyclopentenyl)-2-buten-1-ol], the Acetate in experiment [2] (5 μg/ml) is on record as 1978 μmol/g of feed added; in experiment [2] (50 μg/ml), 2192 μmol/g of feed added; in experiment [2] (100 μg/ml), 2359 μmol/g of feed added; in experiment [2] (500 μg/ml), 1849 μmol/g of feed added. The Butyrate in experiment [2] (5 μg/ml) is 448 μmol/g of feed added; in experiment [2] (50 μg/ml), 466 μmol/g of feed added; in experiment [2] (100 μg/ml), 512 μmol/g of feed added; in experiment [2] (500 μg/ml), 225 μmol/g of feed added. For the same compound, the Methane in experiment [2] (5 μg/ml) is recorded as 1107 μmol/g of feed added; in experiment [2] (50 μg/ml) it was 835 μmol/g of feed added; in experiment [2] (100 μg/ml) it was 795 μmol/g of feed added; in experiment [2] (500 μg/ml), 741 μmol/g of feed added. The Propionate in experiment [2] (5 μg/ml) is recorded as 426 μmol/g of feed added; in experiment [2] (50 μg/ml), 579 μmol/g of feed added; in experiment [2] (100 μg/ml), 697 μmol/g of feed added; in experiment [2] (500 μg/ml), 744 μmol/g of feed added. The TVFA in experiment [2] (5 μg/ml) is on record as 2852 μmol/g of feed added; in experiment [2] (50 μg/ml) it was 3237 μmol/g of feed added; in experiment [2] (100 μg/ml), 3568 μmol/g of feed added; in experiment [2] (500 μg/ml), 2818 μmol/g of feed added. Also, the “CH4 (mean of rep a-c)” value came to 938.5618 µmol/g in experiment [3] (150 ug/30 ml in 200 ul DMSO), 1153.269 µmol/g in experiment [3] (150 ug/30 ml in 200 ul ETOH), 743.6664 µmol/g in experiment [3] (15000 ug/30 ml in 200 ul DMSO) and 1158.419 µmol/g in experiment [3] (15000 ug/30 ml in 200 ul ETOH). In addition, the CH4 is 1107.671 µmol/g and 793.8945 µmol/g and 914.1195 µmol/g in experiment [3] (150 ug/30 ml in 200 ul DMSO); 1064.879 µmol/g and 1232.288 µmol/g and 1162.641 µmol/g in experiment [3] (150 ug/30 ml in 200 ul ETOH); 615.569 µmol/g and 893.1559 µmol/g and 722.2742 µmol/g in experiment [3] (15000 ug/30 ml in 200 ul DMSO); 1063.899 µmol/g and 1351.649 µmol/g and 1059.708 µmol/g in experiment [3] (15000 ug/30 ml in 200 ul ETOH).
For the compound `CC(=CCC1CC=C(C)C1(C)C)CO` (stereo not shown) [Santaliff, 2-Methyl-4-(2,2,3-trimethyl-3-cyclopenten-1-yl)-2-buten-1-ol], in the experiment with rumen fluid [4], the “methane compared to the control experiments” value is given as “significantly decreased”. Moreover, in experiment [2] (5 μg/ml), the Acetate is reported as 2174 μmol/g of feed added, the Butyrate is 458 μmol/g of feed added, the Methane is given as 1031 μmol/g of feed added and the Propionate is 466 μmol/g of feed added. In addition, in experiment [2] (5 μg/ml), the TVFA is 3098 μmol/g of feed added. Besides, in experiment [2] (50 μg/ml), the Acetate is reported as 2142 μmol/g of feed added, the Butyrate is 490 μmol/g of feed added, the Methane is recorded as 1052 μmol/g of feed added and the Propionate was 442 μmol/g of feed added. The TVFA in experiment [2] (50 μg/ml) is reported as 3074 μmol/g of feed added. Moreover, in experiment [2] (100 μg/ml), the Acetate was 2301 μmol/g of feed added, the Butyrate is on record as 462 μmol/g of feed added, the Methane is 844 μmol/g of feed added and the Propionate is 543 μmol/g of feed added. For the same compound, the TVFA in experiment [2] (100 μg/ml) is reported as 3305 μmol/g of feed added. Besides, in experiment [2] (500 μg/ml), the Acetate is listed as 2101 μmol/g of feed added, the Butyrate is 296 μmol/g of feed added, the Methane is 801 μmol/g of feed added and the Propionate was 741 μmol/g of feed added. Besides, the TVFA in experiment [2] (500 μg/ml) is 3138 μmol/g of feed added.
